In paper PMC11149917, “Translational and Therapeutic Evaluation of RAS-GTP Inhibition by RMC-6236 in RAS-Driven Cancers” (Cancer Discovery, 2024):
Values joined by “and” are separate entries in the source; they are usually repeats but may differ in a detail not shown here. Equal values may be shown once.

Assays:
[1] = system: DUSP6 mRNA in KP-4 xenograft tumors; experiment: In vivo PD by DUSP6 qPCR and PK/PD relationship; design: species or system mouse
Method: (§1) Tumor-bearing animals were randomized and assigned into groups (n = 1–10/group). The vehicle at 10 mL/kg or RMC-6236 at indicated doses was administered via oral gavage daily, and animals were treated for 28 days, or up to 90 days if PFS was being assessed. […] For single-dose PKPD study, mice were randomized and assigned into groups (n = 3/dose/time point). A single dose of RMC-6236 was administered orally at either 3, 10, or 25 mg/kg. Blood and tissues, including the tumor, brain, colon, ear skin, and muscle, were harvested at indicated time points. Whole blood was collected in K2EDTA Microtainer tubes, incubated for 5 minutes, and snap-frozen in liquid nitrogen. The tissue was either fixed in 10% formalin or snap-frozen in liquid nitrogen for further analysis.
(§2) RNA was extracted from at least 20 mg of tissue using an RNeasy Mini Kit (Qiagen, 74104) and a High-Throughput Tissue grinder following the manufacturer's protocol. Reverse transcription was carried out using High-Capacity cDNA Reverse Transcription Kit (ABI, 4368814) according to the manufacturer's protocol. The cDNA product was used for qPCR analysis using TaqMan Gene-Expression Master Mix (ABI, 4369016). TaqMan primer probes specific to DUSP6 (human—Hs00737962_m1, murine—Mm00518185_m1, FAM-MGB) and 18S (RNA18S1; human—Hs99999901_s1, murine—Mm03928990_g1, FAM-MGB, used as an internal control gene) were used to detect the levels from each sample in duplicates using a 10 µL final reaction volume in a 384-well clear optical reaction plate. For qPCR, Ct values of DUSP6 and 18S were obtained for analysis. DUSP6 Ct value was normalized to 18S, and then the mean relative mRNA expression levels of each group were normalized to the vehicle control group. Values were plotted as relative change in mRNA expression compared with vehicle. Means ± SEM were shown.
(§3) Concentrations of RMC-6236 in tumor or normal tissues and percentage of DUSP6 inhibition as compared with the vehicle control from individual animals were collected and analyzed post a single dose of RMC-6236 ranging from 0.3 to 100 mg/kg (Supplementary Table S6). A 3-parameter sigmoidal exposure–response model was fitted to the data in GraphPad Prism to derive EC50 and EC90 values.

[2] = system: DUSP6 mRNA in NCI-H441 xenograft tumors; experiment: In vivo PD by DUSP6 qPCR and PK/PD relationship; design: species or system mouse; details: Model Development Dataset
Method: as §1, §2, §3

CCn1c(-c2cc(N3CCN(C)CC3)cnc2[C@H](C)OC)c2c3cc(ccc31)-c1csc(n1)C[C@H](NC(=O)[C@H]1C[C@@H]1C)C(=O)N1CCC[C@H](N1)C(=O)OCC(C)(C)C2 [RMC-6236]
DUSP6 mRNA(% normalized to control) ([1]; KP-4 (25 mg/kg x 31d), 8h): 3.6%
DUSP6 mRNA(% normalized to control) ([1]; KP-4 (25 mg/kg x 31d), 24h): 36.2%
DUSP6 mRNA(% normalized to control) ([1]; KP-4 (25 mg/kg), 2h): 115.7%
DUSP6 mRNA(% normalized to control) ([1]; KP-4 (25 mg/kg), 4h): 18.9%
DUSP6 mRNA(% normalized to control) ([1]; KP-4 (25 mg/kg), 8h): 10.7%
DUSP6 mRNA(% normalized to control) ([1]; KP-4 (25 mg/kg), 12h): 4.3%
DUSP6 mRNA(% normalized to control) ([1]; KP-4 (25 mg/kg), 24h): 37.1%
DUSP6 mRNA(% normalized to control) ([1]; KP-4 (25 mg/kg), 48h): 48.3%
% inhibition of DUSP6 vs control ([1]; KP-4, study KP-4 #3, 25 mg/kg, 4h): 83.13% and 97.7% and 98.74%
% inhibition of DUSP6 vs control ([1]; KP-4, study KP-4 #3, 25 mg/kg, 8h): 99.27% and 98.8% and 98.46%
% inhibition of DUSP6 vs control ([1]; KP-4, study KP-4 #3, 25 mg/kg, 24h): 84.47% and 92.71% and 89.79%
% inhibition of DUSP6 vs control ([1]; KP-4, study KP-4 #3, 50 mg/kg, 4h): 99.82% and 89.5% and 98.09%
% inhibition of DUSP6 vs control ([1]; KP-4, study KP-4 #3, 50 mg/kg, 8h): 99.77% and 99.81% and 99.62%
% inhibition of DUSP6 vs control ([1]; KP-4, study KP-4 #3, 50 mg/kg, 24h): 96.99% and 96.44% and 98.05%
% inhibition of DUSP6 vs control ([1]; KP-4, study KP-4 #3, 50 mg/kg, 48h): 83.3% and 81.21% and 85.91%
% inhibition of DUSP6 vs control ([1]; KP-4, study KP-4 #4, 25 mg/kg, 8h): 95.62% and 96.57% and 90.57%
% inhibition of DUSP6 vs control ([1]; KP-4, study KP-4 #4, 25 mg/kg, 24h): 87.48% and 87.9% and 94.68%
% inhibition of DUSP6 vs control ([1]; KP-4, study KP-4 #4, 40 mg/kg, 8h): 96.06% and 97.31% and 95.84%
% inhibition of DUSP6 vs control ([1]; KP-4, study KP-4 #4, 40 mg/kg, 24h): 75.38% and 93.78% and 96.21%
% inhibition of DUSP6 vs control ([1]; KP-4, study KP-4 #4, 100 mg/kg, 8h): 99.67% and 97.58% and 99.05%
% inhibition of DUSP6 vs control ([1]; KP-4, study KP-4 #4, 100 mg/kg, 24h): 98.22% and 98.9% and 97.78%
% inhibition of DUSP6 vs control ([1]; KP-4, study KP-4 #4, 100 mg/kg, 48h): 68.4% and 89.83% and 80.41%
% inhibition of DUSP6 vs control ([1]; KP-4, study KP-4 #5, 25 mg/kg, 4h): 96.1077% and 90.078% and 87.6997%
% inhibition of DUSP6 vs control ([1]; KP-4, study KP-4 #5, 25 mg/kg, 8h): 91.9687% and 92.3226% and 98.2581%
% inhibition of DUSP6 vs control ([1]; KP-4, study KP-4 #5, 25 mg/kg, 24h): 65.5692% and 78.5839% and 66.1607%
% inhibition of DUSP6 vs control ([1]; KP-4, study KP-4 #6, 3 mg/kg, 8h): 59.13% and 61.2% and 53.53%
% inhibition of DUSP6 vs control ([1]; KP-4, study KP-4 #6, 3 mg/kg, 24h): 48.26% and 46.44% and 45.31%
% inhibition of DUSP6 vs control ([1]; KP-4, study KP-4 #6, 3 mg/kg, 48h): 0% and 3.79%
% inhibition of DUSP6 vs control ([1]; KP-4, study KP-4 #6, 10 mg/kg, 4h): 74.13% and 85.85% and 59.13%
% inhibition of DUSP6 vs control ([1]; KP-4, study KP-4 #6, 10 mg/kg, 8h): 70.29% and 97.17% and 70.69%
% inhibition of DUSP6 vs control ([1]; KP-4, study KP-4 #6, 10 mg/kg, 48h): 8.03% and 13.59% and 9.61%
% inhibition of DUSP6 vs control ([1]; KP-4, study KP-4 #6, 25 mg/kg, 4h): 93.33% and 56.04% and 93.99%
% inhibition of DUSP6 vs control ([1]; KP-4, study KP-4 #6, 25 mg/kg, 8h): 85.45% and 84.94% and 97.45%
% inhibition of DUSP6 vs control ([1]; KP-4, study KP-4 #6, 25 mg/kg, 12h): 93.75% and 94.27% and 98.93%
% inhibition of DUSP6 vs control ([1]; KP-4, study KP-4 #6, 25 mg/kg, 48h): 63.92% and 39.53%
EC50 ([1]; Mus musculus, KP-4 xenograft tumors, read-out: EC50, inhibition of DUSP6 expression vs RMC-6236 concentration (PK/PD relationship)): 454 nM
EC90 ([1]; Mus musculus, KP-4 xenograft tumors, read-out: EC90, inhibition of DUSP6 expression vs RMC-6236 concentration (PK/PD relationship)): 2890 nM
DUSP6 mRNA Expression (%) ([2]; 25mg/kg_study8, 1 h): 30.3376%
DUSP6 mRNA Expression (%) ([2]; 25mg/kg_study8, 2 h): 11.6899%
DUSP6 mRNA Expression (%) ([2]; 25mg/kg_study8, 8 h): 1.524%
DUSP6 mRNA Expression (%) ([2]; 25mg/kg_study8, 24 h): 8.817%
DUSP6 mRNA Expression (%) ([2]; 25mg/kg_study8r (doses every 24 h, 0-[…]), 240 h): 3.766%
DUSP6 mRNA Expression (%) ([2]; 40mg/kg_study8, 1 h): 65.2423%
DUSP6 mRNA Expression (%) ([2]; 40mg/kg_study8, 2 h): 13.6285%
